# Assay results taken from patent publication US20260231941A1, “HERBICIDAL COMPOSITIONS” (SYNGENTA CROP PROTECTION AG, priority 2023, published 2026).
# Columns and labels:
# Assay in all cases: Post-emergence efficacy, glasshouse, percentage damage to plant
# Format in all cases: in vivo
# [1] = system: Ipomoea hederacea (IPOHE); details: 14 days
# From the text: (§1) Seeds of a variety of test species are sown in standard soil in pots (Digitaria sanguinalis (DIGSA), Echinochloa crus-galli (ECHCG), Setaria faberi (SETFA), Stellaria media (STEME), Amaranthus retroflexus (AMARE), Chenopodium album (CHEAL), Abutilon theophrasti (ABUTH), Ipomoea hederacea (IPOHE), Phalaris minor (PHAMI), Eleusine indica (ELEIN), Sorghum bicolor (SORVU), Euphorbia heterophylla (EPHHL), Fallopia convolvulus (POLCO)), and cultivated under controlled conditions in a glasshouse (at 24/16° C., day/night; 14 hours light; 65% humidity), the plants are sprayed with an aqueous spray solution derived from the dissolution of Component (A) in acetone and IF50 (11.12% Emulsogen EL360 TM+44.44% N-methylpyrrolidone+44.44% Dowanol DPM glycol ether) and Component (B) which was then diluted to the required concentration using 0.2% Genapol XO80 (CAS No. 9043-30-5) in water as the diluent. Test compounds or compositions are applied at the rates stated. The test plants are then grown in a glasshouse under controlled conditions in a glasshouse (at […], day/night; 14 hours light; 65% humidity) and watered twice daily. After 14 days, the test is evaluated for the percentage damage caused to the plant (100=total damage to plant; 0=no damage to plant), and the result are shown below in table B1 to B18.
# Eleusine indica (ELEIN) = details: 14 days, Table B17
# From the text: as §1
# [2] = system: Euphorbia heterophylla (EPHHL); details: 14 days, Table B11
# From the text: as §1
# Sorghum bicolor (SORVU) = details: 14 days, Table B10
# From the text: as §1
# [3] = system: Fallopia convolvulus (POLCO); details: 14 days
# From the text: as §1
# [4] = system: Chenopodium album (CHEAL); details: 14 days, Table B6
# From the text: as §1
# [5] = system: Amaranthus retroflexus (AMARE); details: 14 days
# From the text: as §1
# Stellaria media (STEME) = details: 14 days
# From the text: as §1
# [6] = system: Digitaria sanguinalis (DIGSA); details: 14 days, Table B1
# From the text: as §1
# [7] = system: Abutilon theophrasti (ABUTH); details: 14 days, Table B7
# From the text: as §1
# [8] = system: Echinochloa crus-galli (ECHCG); details: growth stage 4 true leaves, 14 days
# From the text: as §1
# Setaria faberi (SETFA) = details: 14 days, Table B3
# From the text: as §1
# Phalaris minor (PHAMI) = details: 14 days, Table B9
# From the text: as §1
# [9] = Compound (Ia) 0.46875 g/Ha alone
# [10] = Compound (Ia) 0.9375 g/Ha alone
structure (smiles),measurement,setting,value
CCOC(=O)C1(C)CC(c2cc(-n3c(=O)cc(C(F)(F)F)n(C)c3=O)c(F)cc2Cl)=NO1 (stereo not drawn) [Compound (Ia)],Observed Activity,"[1]; Compound (Ia) 0.46875 g/Ha alone, Table B8",53.8%
same,Observed Activity,"[1]; Compound (Ia) 0.46875 g/Ha alone, Table B16",53.8%
same,Observed Activity,"[1]; Compound (Ia) 1.875 g/Ha alone, Table B8",83.8%
same,Observed Activity,"[1]; Compound (Ia) 1.875 g/Ha alone, Table B16",83.8%
same,Observed Activity,Eleusine indica (ELEIN); [9],37.5%
same,Observed Activity,Eleusine indica (ELEIN); Compound (Ia) 7.5 g/Ha alone,89.8%
same,Observed Activity,[2]; [10],33.3%
same,Observed Activity,[2]; Compound (Ia) 1.875 g/Ha alone,45.3%
same,Observed Activity,Sorghum bicolor (SORVU); Compound (Ia) 7.5 g/Ha alone,72.3%
same,Observed Activity,"[3]; Compound (Ia) 0.9375 g/Ha alone, Table B18",82.0%
same,Observed Activity,"[3]; Compound (Ia) 1.875 g/Ha alone, Table B12",79.8%
same,Observed Activity,"[3]; Compound (Ia) 1.875 g/Ha alone, Table B18",79.8%
same,Observed Activity,[4]; Compound (Ia) 1.875 g/Ha alone,77.5%
same,Observed Activity,"[5]; Compound (Ia) 0.9375 g/Ha alone, Table B5",51.3%
same,Observed Activity,"[5]; Compound (Ia) 0.9375 g/Ha alone, Table B15",51.3%
same,Observed Activity,"[5]; Compound (Ia) 1.875 g/Ha alone, Table B5",73.8%
same,Observed Activity,"Stellaria media (STEME); Compound (Ia) 0.9375 g/Ha alone, Table B4",27.5%
same,Observed Activity,"Stellaria media (STEME); Compound (Ia) 1.875 g/Ha alone, Table B4",43.8%
same,Observed Activity,"Stellaria media (STEME); Compound (Ia) 7.5 g/Ha alone, Table B14",67.5%
same,Observed Activity,[6]; [10],23.8%
same,Observed Activity,[7]; [9],25.0%
same,Observed Activity,[7]; [10],67.5%
same,Observed Activity,[7]; Compound (Ia) 1.875 g/Ha alone,88.8%
same,Observed Activity,"[8]; Compound (Ia) 3.75 g/Ha alone, Table B2",52.5%
same,Observed Activity,"[8]; Compound (Ia) 3.75 g/Ha alone, Table B13",31.3%
same,Observed Activity,"[8]; Compound (Ia) 7.5 g/Ha alone, Table B2",68.8%
same,Observed Activity,"[8]; Compound (Ia) 7.5 g/Ha alone, Table B13",47.5%
same,Observed Activity,Setaria faberi (SETFA); Compound (Ia) 3.75 g/Ha alone,73.8%
same,Observed Activity,Phalaris minor (PHAMI); [9],7.5%
same,Observed Activity,Phalaris minor (PHAMI); [10],11.3%
same,Observed Activity,Phalaris minor (PHAMI); Compound (Ia) 1.875 g/Ha alone,25.8%
same,Observed Activity,Phalaris minor (PHAMI); Compound (Ia) 3.75 g/Ha alone,57.0%
same,Observed Activity,Phalaris minor (PHAMI); Compound (Ia) 7.5 g/Ha alone,72.8%
"CP(=O)(O)CCC(N)C(=O)O (stereo not drawn) [Glufosinate, glufosinate]",Observed Activity,"[1]; Glufosinate 7.5 g/Ha alone, Table B8",2.5%
same,Observed Activity,"[1]; Glufosinate 30 g/Ha alone, Table B8",7.5%
same,Observed Activity,[2]; Glufosinate 3.75 g/Ha alone,12.5%
same,Observed Activity,[2]; Glufosinate 7.5 g/Ha alone,12.5%
same,Observed Activity,Sorghum bicolor (SORVU); Glufosinate 30 g/Ha alone,24.0%
same,Observed Activity,"[3]; Glufosinate 7.5 g/Ha alone, Table B12",7.5%
same,Observed Activity,[4]; Glufosinate 15 g/Ha alone,0.0%
same,Observed Activity,"[5]; Glufosinate 7.5 g/Ha alone, Table B5",0.0%
same,Observed Activity,"[5]; Glufosinate 15 g/Ha alone, Table B5",0.0%
same,Observed Activity,"[5]; Glufosinate 30 g/Ha alone, Table B5",2.5%
same,Observed Activity,"Stellaria media (STEME); Glufosinate 7.5 g/Ha alone, Table B4",0.0%
same,Observed Activity,"Stellaria media (STEME); Glufosinate 30 g/Ha alone, Table B4",2.5%
same,Observed Activity,[6]; Glufosinate 7.5 g/Ha alone,5.0%
same,Observed Activity,[7]; Glufosinate 7.5 g/Ha alone,7.5%
same,Observed Activity,[7]; Glufosinate 15 g/Ha alone,10.0%
same,Observed Activity,"[8]; Glufosinate 30 g/Ha alone, Table B2",47.5%
same,Observed Activity,"[8]; Glufosinate 60 g/Ha alone, Table B2",67.5%
same,Observed Activity,"[8]; Glufosinate 120 g/Ha alone, Table B2",91.5%
same,Observed Activity,Setaria faberi (SETFA); Glufosinate 30 g/Ha alone,15.0%
same,Observed Activity,Phalaris minor (PHAMI); Glufosinate 1.875 g/Ha alone,2.5%
same,Observed Activity,Phalaris minor (PHAMI); Glufosinate 3.75 g/Ha alone,5.0%
same,Observed Activity,Phalaris minor (PHAMI); Glufosinate 7.5 g/Ha alone,12.5%
same,Observed Activity,Phalaris minor (PHAMI); Glufosinate 15 g/Ha alone,7.5%
same,Observed Activity,Phalaris minor (PHAMI); Glufosinate 30 g/Ha alone,12.5%
"CP(=O)(O)CC[C@H](N)C(=O)O [L-Glufosinate, L-glufosinate]",Observed Activity,"[1]; L-Glufosinate 7.5 g/Ha alone, Table B16",5.0%
same,Observed Activity,"[1]; L-Glufosinate 15 g/Ha alone, Table B16",15.0%
same,Observed Activity,Eleusine indica (ELEIN); L-Glufosinate 1.875 g/Ha alone,0.0%
same,Observed Activity,Eleusine indica (ELEIN); L-Glufosinate 30 g/Ha alone,20.0%
same,Observed Activity,"[3]; L-Glufosinate 3.75 g/Ha alone, Table B18",10.0%
same,Observed Activity,"[3]; L-Glufosinate 7.5 g/Ha alone, Table B18",25.0%
same,Observed Activity,"[5]; L-Glufosinate 7.5 g/Ha alone, Table B15",5.0%
same,Observed Activity,"[5]; L-Glufosinate 15 g/Ha alone, Table B15",7.5%
same,Observed Activity,"Stellaria media (STEME); L-Glufosinate 120 g/Ha alone, Table B14",32.5%
same,Observed Activity,"[8]; L-Glufosinate 30 g/Ha alone, Table B13",5.0%
same,Observed Activity,"[8]; L-Glufosinate 60 g/Ha alone, Table B13",22.5%
same,Observed Activity,"[8]; L-Glufosinate 120 g/Ha alone, Table B13",32.5%
